Experimental data taken from ChEMBL document CHEMBL1201862, “PubChem BioAssay data set” (2004).
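Cells were grown in 96-well plates and exposed to each compound for 48 hours at five concentrations; endpoints were interpolated linearly between bracketing concentrations, or set to the highest concentration if not reached. Abbreviation: GI50, concentration required for 50% inhibition of growth.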 Active and inactive are the calls of the source. No stated cut-off is given here; in the data, active = GI50 up to about 1.1 µM and inactive = higher.

What was measured:
Experiment in all cases: NCI-60 cell line screen, 48 h
LXFL 529 = test system: LXFL 529
DLD-1 = test system: DLD-1
SNB-78 = test system: SNB-78
XF498 = test system: XF498
HOP-18 = test system: HOP-18
KM-20L2 = test system: KM-20L2
DMS-114 = test system: DMS-114
M19-MEL = test system: M19-MEL
RXF 631 = test system: RXF 631

Measured: GI50

O=C1C(=Cc2cccs2)C(=O)N(CCc2ccccc2)S(=O)(=O)N1CCc1ccccc1
inactive: LXFL 529 > 50 µM | DLD-1 > 50 µM | SNB-78 > 50 µM | XF498 > 50 µM | HOP-18 > 50 µM | KM-20L2 > 50 µM | DMS-114 10.4 µM | M19-MEL > 50 µM

COC1OC(C)C2OC(C)(C)OC2C1OC(C)=O (stereo not given)
inactive: LXFL 529 > 100 µM | DLD-1 > 100 µM | SNB-78 > 100 µM | XF498 > 100 µM | HOP-18 > 100 µM | RXF 631 > 100 µM | KM-20L2 > 100 µM | M19-MEL > 100 µM

Cc1cccc(/N=C/c2ccc(N(CCC#N)S(=O)(=O)c3ccccc3)cc2C)c1
inactive: LXFL 529 29.6 µM | DLD-1 > 100 µM | XF498 > 100 µM | RXF 631 > 100 µM | KM-20L2 > 100 µM | DMS-114 63.7 µM | M19-MEL > 100 µM

C[C@]12CC[C@H](OCCC#N)CC1=CC[C@@H]1C2CC[C@]2(C)/C(=N/OCCC#N)CCC12 (stereo not given in full)
inactive: LXFL 529 > 74.6 µM | DLD-1 > 100 µM | SNB-78 22.8 µM | XF498 3.4 µM | HOP-18 > 100 µM | KM-20L2 > 100 µM | DMS-114 5.12 µM | M19-MEL > 100 µM

COc1ccc(/N=N/c2c(-c3ccccc3)nn(C(=O)CC(=O)Nc3cccc(Cl)c3)c2-c2ccccc2)cc1
inactive: LXFL 529 > 100 µM | DLD-1 40.6 µM | XF498 > 100 µM | HOP-18 66.8 µM | KM-20L2 66.1 µM | DMS-114 45.8 µM | M19-MEL > 100 µM

Cc1[nH]c2ccccc2c1C(=O)/C=C/c1ccccc1O
inactive: LXFL 529 > 100 µM | DLD-1 > 100 µM | XF498 > 100 µM | HOP-18 > 100 µM | KM-20L2 > 100 µM | M19-MEL > 100 µM

Cc1ccc(S(=O)(=O)C(C#N)c2nc3ccccc3nc2-n2cccn2)cc1 (stereo not given)
inactive: LXFL 529 > 100 µM | DLD-1 > 100 µM | SNB-78 > 100 µM | XF498 > 100 µM | HOP-18 86.9 µM | DMS-114 > 100 µM | M19-MEL > 100 µM

CC(=O)OC[C@@H]1[C@H]2CC(=O)O[C@H]2C[C@H]1OC(C)=O
inactive: LXFL 529 > 100 µM | DLD-1 > 100 µM | SNB-78 > 100 µM | HOP-18 > 100 µM | KM-20L2 > 100 µM | DMS-114 > 100 µM | M19-MEL > 100 µM

CC[C@@]1(OC(=O)C(N)CCCCN)C(=O)OCc2c1cc1n(c2=O)Cc2cc3ccccc3nc2-1 (stereo not given in full)
active: LXFL 529 0.372 µM | DLD-1 0.494 µM | SNB-78 0.372 µM | XF498 0.201 µM | HOP-18 0.0785 µM | KM-20L2 0.166 µM | DMS-114 < 0.0157 µM | M19-MEL 0.0619 µM

C=CCC1(CN(C)C)CC/C(=C\c2ccc(Cl)cc2)C1=O (stereo not given)
inactive: LXFL 529 27.5 µM | DLD-1 32.1 µM | SNB-78 27.4 µM | XF498 77.6 µM | HOP-18 > 54.1 µM | KM-20L2 22.8 µM | DMS-114 27.4 µM | M19-MEL 32.3 µM

S=c1c2ccccc2c(=S)n2n1CC=CC2
inactive: LXFL 529 > 100 µM | DLD-1 > 100 µM | SNB-78 > 100 µM | HOP-18 > 100 µM | RXF 631 > 100 µM | KM-20L2 > 100 µM | DMS-114 > 100 µM | M19-MEL > 100 µM

CN(C)CCNC(=O)c1cccc2cc3ccc4ccccc4c3nc12
active: LXFL 529 0.128 µM | DLD-1 0.0561 µM | SNB-78 0.182 µM | XF498 0.056 µM | HOP-18 0.205 µM | KM-20L2 0.136 µM

NC(=O)COc1ccc(Br)cc1Br
inactive: LXFL 529 > 100 µM | DLD-1 > 100 µM | SNB-78 > 100 µM | HOP-18 > 100 µM | KM-20L2 > 100 µM | DMS-114 > 100 µM | M19-MEL > 100 µM

Cc1ccc(S(=O)(=O)N/N=C(\c2nc3ccc([N+](=O)[O-])cc3nc2O)C(O)c2ccccc2Cl)cc1 (stereo not given)
inactive: LXFL 529 35.8 µM | DLD-1 > 100 µM | SNB-78 > 100 µM | HOP-18 > 100 µM | RXF 631 > 100 µM | KM-20L2 > 100 µM | DMS-114 16.7 µM | M19-MEL 86.9 µM

Cc1cc(C)nc(NS(=O)(=O)c2ccc(NC(=O)c3cccc4cc5ccccc5nc34)cc2)n1
inactive: LXFL 529 36.1 µM | DLD-1 27.5 µM | SNB-78 25.2 µM | XF498 25.3 µM | RXF 631 28.5 µM | KM-20L2 37.2 µM | M19-MEL 28.2 µM

COC(=O)CCSC(=O)Nc1ccccc1Cl
inactive: LXFL 529 > 100 µM | DLD-1 > 100 µM | SNB-78 > 100 µM | KM-20L2 > 100 µM | DMS-114 > 100 µM

Cc1ccc(/C=N/NS(=O)(=O)c2ccccc2)cc1
inactive: LXFL 529 > 100 µM | DLD-1 > 100 µM | SNB-78 > 100 µM | XF498 > 100 µM | HOP-18 > 100 µM | RXF 631 > 100 µM | KM-20L2 > 100 µM | DMS-114 > 100 µM

C/C=C1\CN2CCc3c([nH]c4ccccc34)C2CC1C(=O)OC (stereo not given)
inactive: LXFL 529 > 322 µM | DLD-1 > 322 µM | XF498 > 322 µM | KM-20L2 > 322 µM

CC1(C)C(O)OC(O)C1(C)C (stereo not given)
inactive: LXFL 529 74 µM | DLD-1 52.5 µM | SNB-78 > 100 µM | XF498 47 µM | HOP-18 49.1 µM | RXF 631 61 µM | KM-20L2 > 100 µM | DMS-114 > 100 µM | M19-MEL > 100 µM

COC1(C)C(=O)N2C1N(C(=O)OCc1ccccc1)CC2(C)C (stereo not given)
inactive: LXFL 529 > 100 µM | DLD-1 > 100 µM | XF498 > 100 µM | KM-20L2 > 100 µM | DMS-114 > 100 µM | M19-MEL > 100 µM

O=C(N/C(=C\c1cccc([N+](=O)[O-])c1)c1nc2c3c(ccc2[nH]1)C(=O)c1ccccc1C3=O)c1ccccc1
inactive: LXFL 529 16 µM | DLD-1 12.2 µM | SNB-78 > 100 µM | XF498 57.9 µM | HOP-18 > 100 µM | KM-20L2 30.2 µM | DMS-114 26.4 µM

CCOC(=O)C(C)(C)Oc1ccc2c(C)c(-c3ccc(Cl)cc3)c(=O)oc2c1
inactive: LXFL 529 34.1 µM | DLD-1 47.6 µM | XF498 20.3 µM | RXF 631 32.6 µM | KM-20L2 33.2 µM | DMS-114 20.4 µM | M19-MEL 54.2 µM

COc1ccc(C(c2ccc(C(C)C)cc(OC)c2=O)c2ccc(C(C)C)cc(OC)c2=O)cc1
inactive: LXFL 529 14.5 µM | DLD-1 6.3 µM | SNB-78 13.2 µM | XF498 20.4 µM | HOP-18 25.4 µM | RXF 631 15 µM | KM-20L2 14.1 µM | DMS-114 12.3 µM | M19-MEL 14.1 µM

Nc1ccn([C@@H]2C=C(CO)[C@@H](O)[C@H]2O)c(=O)n1
inactive: SNB-78 3.28 µM | XF498 6.22 µM | HOP-18 8.09 µM
active: DLD-1 0.151 µM | KM-20L2 0.0912 µM | DMS-114 0.417 µM | M19-MEL 0.308 µM

COc1ccc2c(c1)c(=O)c1c(NCCN(C)C)ccc3nnn2c31
inactive: LXFL 529 2.91 µM | DLD-1 1.71 µM | SNB-78 4.35 µM | RXF 631 2.21 µM | KM-20L2 1.15 µM | DMS-114 3.64 µM | M19-MEL 6.61 µM
active: HOP-18 0.504 µM
